# Earlier results in patent US9192579B2, “Sustained release drug delivery devices, methods of use, and methods of manufacturing thereof” (pSivida US, Inc., priority 2000, dated 2015).
# System: CMV retinitis
# Details: intravitreal injections of 200 to 400 μg once or twice weekly, AIDS patients
structure (smiles),measurement,value
"Nc1nc(O)c2ncn(COC(CO)CO)c2n1 [GCV, ganciclovir]",effect on CMV retinitis,temporary remission
